The values that follow come from patent US12391683B2, “Therapeutic compounds and methods” (Actio Biosciences, Inc., priority 2022, dated 2025).

Series [1] concerns Hepatocytes. Kind of series: Hepatocytes predicted clearance, dog.
For series [2], the target named is T1, TRPV1 channels (Homo sapiens, UniProt Q8NER1).
T1 construct: expressed in transfected cells; host or cells: HEK293
Kind of series: TRP Family FLIPR Assay, TRPV1. The format is cell-based. The settings on record: HEK293 cells. The protocol:
(§1) The compound of Example 5 was tested for selectivity against a panel of Human TRP family ion channels in a TRP Family FLIPR Assay as described below. • 1. TRPC3 channels (human TRPC3 variant 1 gene, expressed in HEK293 cells). • 2. TRPC4 channels (human TRPC4 gene, expressed in HEK293 cells). • 3. TRPC5 channels (human TRPC5 gene, expressed in HEK293 cells). • 4. TRPC6 channels (human TRPC6 gene, expressed in HEK293 cells). • 5. TRPM2 channels (human TRPM2 gene, transiently expressed in HEK293 cells). • 6. TRPM3 channels (human TRPM3 gene, transiently expressed in HEK293 cells). • 7. TRPM4 channels (human TRPM4 gene, expressed in CHO cells). • 8. […]
(§2) Data acquisition was performed via the FLIPR Control software supplied with the FLIPR System (MDS-AT) and data was analyzed using Microsoft Excel (Microsoft Corp., Redmond, WA) or GraphPad Prism. […]
(§3) [formula] where Base is the response at low concentrations of test article, Max is the maximum response at high concentrations, xhalf the EC50, or IC50, the concentration of test article producing either half-maximal activation or inhibition, and rate is the Hill coefficient. […] No assumptions about the fit parameters was made; the fit parameters were determined by the algorithm.
(§4) The effect of each test article was evaluated at eight (8) concentrations: 0.003, 0.01, 0.03, 0.1, 0.3, 1, 3 and 10 μM, n≤4 wells/concentration). […]

For series [3], the target named is Human TRPV4 (Homo sapiens, UniProt Q9HBA0). Description: TRP Family FLIPR Assay, TRPV4. The settings on record: CHO cells. The format is cell-based. The arrangement: expressed in transfected cells; host or cells: CHO. The protocol:
as §1, §2, §3, §4

The subject of series [4] is Hepatocytes. Description: Hepatocytes predicted clearance, human.
For series [5], the target named is T2, TRPV5 channels (Homo sapiens, UniProt Q9NQA5).
T2 construct: expressed in transfected cells; host or cells: HEK293 (transient)
T2 sequence (Q9NQA5 whole entry): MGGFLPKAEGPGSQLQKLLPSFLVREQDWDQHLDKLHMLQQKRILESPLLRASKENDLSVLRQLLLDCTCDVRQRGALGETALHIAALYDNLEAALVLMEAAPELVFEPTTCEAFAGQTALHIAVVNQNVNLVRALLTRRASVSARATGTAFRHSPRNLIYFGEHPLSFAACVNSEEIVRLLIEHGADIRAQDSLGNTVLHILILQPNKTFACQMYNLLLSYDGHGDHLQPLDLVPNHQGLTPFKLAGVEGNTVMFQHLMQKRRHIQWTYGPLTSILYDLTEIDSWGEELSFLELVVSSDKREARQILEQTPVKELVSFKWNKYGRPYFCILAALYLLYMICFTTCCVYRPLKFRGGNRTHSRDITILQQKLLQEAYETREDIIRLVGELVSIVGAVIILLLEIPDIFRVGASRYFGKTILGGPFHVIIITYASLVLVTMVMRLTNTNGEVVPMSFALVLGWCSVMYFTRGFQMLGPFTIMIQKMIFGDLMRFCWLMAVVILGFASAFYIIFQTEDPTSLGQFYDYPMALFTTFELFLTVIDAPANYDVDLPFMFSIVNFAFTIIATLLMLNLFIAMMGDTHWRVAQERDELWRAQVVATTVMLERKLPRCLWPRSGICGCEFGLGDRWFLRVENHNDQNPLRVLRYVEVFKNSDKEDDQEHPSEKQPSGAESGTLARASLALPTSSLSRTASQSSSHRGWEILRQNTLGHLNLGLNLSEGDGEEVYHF
Description: TRP Family FLIPR Assay, TRPV5. The class given is cell-based. The settings on record: antagonist mode; activated with 60 μM cadmium ion; HEK293 cells (transient); 0.003-10 μM; read-out: IC50 hTRPV5. The protocol:
as §1, §2, §3, §4

For series [6], the target named is T3, TRPV6 channels (Homo sapiens, UniProt Q9H1D0).
T3 construct: expressed in transfected cells; host or cells: HEK293
T3 sequence (Q9H1D0 1-765): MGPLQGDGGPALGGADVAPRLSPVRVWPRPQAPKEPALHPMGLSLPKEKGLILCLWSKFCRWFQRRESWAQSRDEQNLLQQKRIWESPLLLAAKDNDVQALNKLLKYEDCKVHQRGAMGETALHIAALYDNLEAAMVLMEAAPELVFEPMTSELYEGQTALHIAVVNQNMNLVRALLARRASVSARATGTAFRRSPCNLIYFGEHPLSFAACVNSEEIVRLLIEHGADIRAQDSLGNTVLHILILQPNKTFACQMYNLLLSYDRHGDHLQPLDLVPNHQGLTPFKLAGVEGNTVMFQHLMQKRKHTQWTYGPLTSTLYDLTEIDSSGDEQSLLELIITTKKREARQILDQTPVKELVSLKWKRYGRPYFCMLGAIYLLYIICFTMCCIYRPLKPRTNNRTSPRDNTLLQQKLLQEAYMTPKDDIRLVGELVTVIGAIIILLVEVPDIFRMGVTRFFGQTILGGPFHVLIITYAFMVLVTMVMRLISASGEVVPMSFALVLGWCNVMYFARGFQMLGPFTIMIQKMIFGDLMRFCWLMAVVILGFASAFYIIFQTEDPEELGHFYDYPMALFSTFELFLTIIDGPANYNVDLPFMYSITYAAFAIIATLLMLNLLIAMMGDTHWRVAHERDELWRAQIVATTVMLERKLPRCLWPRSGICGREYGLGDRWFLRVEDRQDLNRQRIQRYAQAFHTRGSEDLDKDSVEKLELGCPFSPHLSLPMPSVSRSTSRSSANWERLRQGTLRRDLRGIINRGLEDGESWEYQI
Kind of series: TRP Family FLIPR Assay, TRPV6. The format is cell-based. The following applies: antagonist mode; activated with 0.9 mM calcium ion; HEK293 cells; 0.003-10 μM; read-out: IC50 hTRPV6. The method, then:
as §1, §2, §3, §4

Each structure is given as a SMILES string.

Chain of Human TRPV4 (Q9HBA0 whole entry): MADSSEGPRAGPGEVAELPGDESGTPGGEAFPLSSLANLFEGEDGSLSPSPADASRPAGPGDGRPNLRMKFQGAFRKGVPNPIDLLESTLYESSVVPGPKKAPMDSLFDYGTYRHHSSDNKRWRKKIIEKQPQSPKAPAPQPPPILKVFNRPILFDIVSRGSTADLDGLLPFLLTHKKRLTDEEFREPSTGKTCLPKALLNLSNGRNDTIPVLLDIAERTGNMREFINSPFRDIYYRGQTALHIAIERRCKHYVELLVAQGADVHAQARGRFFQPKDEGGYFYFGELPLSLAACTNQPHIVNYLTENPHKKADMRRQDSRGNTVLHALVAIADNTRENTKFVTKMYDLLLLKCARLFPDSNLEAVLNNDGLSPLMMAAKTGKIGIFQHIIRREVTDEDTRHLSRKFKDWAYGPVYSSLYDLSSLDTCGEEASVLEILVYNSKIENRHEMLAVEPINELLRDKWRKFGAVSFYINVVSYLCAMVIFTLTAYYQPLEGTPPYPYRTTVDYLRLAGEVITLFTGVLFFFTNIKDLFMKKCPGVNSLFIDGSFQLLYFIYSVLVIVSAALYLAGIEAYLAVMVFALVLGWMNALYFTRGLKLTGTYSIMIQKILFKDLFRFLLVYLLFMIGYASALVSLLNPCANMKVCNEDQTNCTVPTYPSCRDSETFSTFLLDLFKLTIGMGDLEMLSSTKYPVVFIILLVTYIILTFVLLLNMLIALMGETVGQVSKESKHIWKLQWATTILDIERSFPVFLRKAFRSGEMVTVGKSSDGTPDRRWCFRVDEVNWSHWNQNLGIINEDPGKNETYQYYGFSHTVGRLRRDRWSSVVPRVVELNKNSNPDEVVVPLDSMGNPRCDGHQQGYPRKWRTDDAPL
T1 sequence (Q8NER1 whole entry): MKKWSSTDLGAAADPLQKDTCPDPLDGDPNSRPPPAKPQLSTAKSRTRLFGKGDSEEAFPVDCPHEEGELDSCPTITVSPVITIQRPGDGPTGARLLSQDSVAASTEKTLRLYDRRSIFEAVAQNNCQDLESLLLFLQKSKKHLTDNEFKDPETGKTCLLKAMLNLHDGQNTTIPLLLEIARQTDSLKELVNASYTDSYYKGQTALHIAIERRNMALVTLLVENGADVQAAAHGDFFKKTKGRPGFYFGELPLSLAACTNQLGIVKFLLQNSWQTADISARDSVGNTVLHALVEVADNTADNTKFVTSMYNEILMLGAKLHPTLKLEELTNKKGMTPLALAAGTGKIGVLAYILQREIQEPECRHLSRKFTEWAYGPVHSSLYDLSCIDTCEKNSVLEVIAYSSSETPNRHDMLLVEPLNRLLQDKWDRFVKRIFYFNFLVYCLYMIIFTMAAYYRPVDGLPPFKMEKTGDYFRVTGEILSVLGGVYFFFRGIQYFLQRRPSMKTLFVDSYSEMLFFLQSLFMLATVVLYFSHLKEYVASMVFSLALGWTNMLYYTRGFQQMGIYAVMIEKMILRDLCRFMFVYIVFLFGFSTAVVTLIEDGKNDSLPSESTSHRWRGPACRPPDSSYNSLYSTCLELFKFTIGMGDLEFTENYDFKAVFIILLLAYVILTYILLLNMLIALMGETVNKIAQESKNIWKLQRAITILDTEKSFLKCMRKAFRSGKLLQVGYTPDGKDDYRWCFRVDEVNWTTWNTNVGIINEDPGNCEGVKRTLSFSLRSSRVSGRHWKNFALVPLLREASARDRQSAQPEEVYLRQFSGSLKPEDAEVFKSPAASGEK

As usually defined, the EC50 is the midpoint of the concentration-response curve. For orientation: IC50 means the concentration that inhibits the measured activity by half. As to `CC(C)(O)c1cnc(N2C[C@@]3(CC[C@@H](F)[C@](C)(Cn4cnc5ccc(C#N)cc54)C3)OC2=O)cn1` (single isomer, unassigned) [Example 5], in series [1], the “Hepatocytes predicted clearance in dog” value was 11 mL/min/kg. The EC50 in series [2] (agonist mode, vs EMAX of capsaicin 1 μM, read-out: EC50 hTRPV1) was > 10 µM; in series [3] (agonist mode, vs EMAX of GSK1016790A 3 μM, read-out: EC50 hTRPV4) it was > 10 µM. Also, the IC50 is > 10 µM in series [2] (antagonist mode, activated with capsaicin 0.1 μM, 0.003-10 μM, read-out: IC50 hTRPV1); 0.014 µM in series [3] (antagonist mode, activated with GSK1016790A 0.3 μM, 0.003-10 μM, read-out: IC50 hTRPV4); > 10 µM in series [5]; > 10 µM in series [6]. In series [4], the “Hepatocytes predicted clearance in human” value was < 0.17 mL/min/kg.
